Results reported in US8952024B2, “Herbicidal pyrimidone derivatives” (E I du Pont de Nemours and Company, priority 2009, dated 2015).

Assays:
Assay type in all cases: in vivo
soybean (Glycine max) = experiment: Test B pre-/postemergence plant response; details: for Soybean plant response rating (0 to 100 scale): 62 g ai/ha, postemergence, 0 is no effect, 100 is complete control, 13 to 15 days; for Plant response rating, Soybean: Postemergence, scale 0 to 100 (0 no effect, 100 complete control)
Procedure, shortened: (§1)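 Test compounds, formulated in a non-phytotoxic solvent mixture with surfactant, are applied to the soil surface (loam and sand blend) right after seeding, or sprayed over plants at the 1- to 4-leaf stage grown in peat moss/vermiculite medium. After 13 to 15 days under glasshouse conditions, each species is scored visually from 0 (no effect) to 100 (complete control) against controls.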

[1] = system: morningglory (Ipomoea coccinea); experiment: Test B pre-/postemergence plant response; details: for Morningglory plant response rating (0 to 100 scale): 62 g ai/ha, 0 is no effect, 13 to 15 days
Procedure, shortened: as §1

[2] = system: cocklebur (Xanthium strumarium); experiment: Test B pre-/postemergence plant response; details: for Cocklebur plant response rating (0 to 100 scale): 62 g ai/ha, 0 is no effect, 13 to 15 days
Procedure, shortened: as §1

[3] = system: wheat (Triticum aestivum); experiment: Test B pre-/postemergence plant response; details: for Wheat plant response rating (0 to 100 scale): 62 g ai/ha, postemergence, 0 is no effect, 100 is complete control, 13 to 15 days; for Plant response rating, Wheat: Postemergence, 125 g ai/ha, scale 0 to 100 (0 no effect, 100 complete control)
Procedure, shortened: as §1

[4] = system: large crabgrass (Digitaria sanguinalis); experiment: Test A pre-/postemergence plant response
Procedure, shortened: (§2)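 Injury scores (0, no effect; 100, complete control) come from visual comparison with untreated controls roughly ten days post-treatment. Test chemicals in a surfactant-containing non-phytotoxic solvent were applied as a directed soil spray preemergence and to one- to two-leaf seedlings postemergence.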

corn (Zea mays) = experiment: Test A pre-/postemergence plant response
Procedure, shortened: as §2

[5] = system: giant foxtail (Setaria faberii); experiment: Test A pre-/postemergence plant response
Procedure, shortened: as §2

[6] = system: pigweed (Amaranthus retroflexus); experiment: Test A pre-/postemergence plant response
Procedure, shortened: as §2

[7] = system: morningglory (Ipomoea spp.); experiment: Test A pre-/postemergence plant response
Procedure, shortened: as §2

[8] = system: velvetleaf (Abutilon theophrasti); experiment: Test A pre-/postemergence plant response
Procedure, shortened: as §2

[9] = system: barnyardgrass (Echinochloa crus-galli); experiment: Test A pre-/postemergence plant response
Procedure, shortened: as §2

[10] = system: wheat (Triticum aestivum); experiment: Test A pre-/postemergence plant response
Procedure, shortened: as §2

[11] = 31 g ai/ha, postemergence, scale 0 to 100, 0 is no effect, 100 is complete control
[12] = postemergence, 100 is complete control
[13] = Postemergence, 125 g ai/ha, scale 0 to 100 (0 no effect, 100 complete control)
[14] = Postemergence, 250 g ai/ha, scale 0 to 100 (0 no effect, 100 complete control)
[15] = Postemergence, 125 g ai/ha, 0 to 100 scale where 0 is no effect and 100 is complete control
[16] = Postemergence, 500 g ai/ha, 0 to 100 scale, 0 = no effect, 100 = complete control, approx. ten days
[17] = Preemergence, 125 g ai/ha, 0 to 100 scale, 0 = no effect, 100 = complete control
[18] = Preemergence, 500 g ai/ha, visual injury, 0 to 100 scale (0 no effect, 100 complete control), approx. ten days

O=C1CCCC(O)=C1C(=O)c1cnc(-c2cccs2)n(CC2CCCO2)c1=O (centres unmarked) [Compound 109]
75: Plant response rating, Cocklebur [2, 11]
80: Plant response rating, Barnyardgrass [9, 15]
70: Plant response rating, Morningglory [1, 11] | Plant response rating, Foxtail, Giant [5, 15] | Plant response rating, Morningglory [7, 18] | Plant response rating, Velvetleaf [8, 17] | Plant response rating, Barnyardgrass [9, 18]
5: Wheat plant response rating (0 to 100 scale) [3] | Plant response rating, Wheat [3]
95: Soybean plant response rating (0 to 100 scale) (soybean (Glycine max))
0: Plant response rating, Corn (corn (Zea mays); [15]) | Plant response rating, Corn (corn (Zea mays); [17]) | Plant response rating, Corn (corn (Zea mays); [18]) | Plant response rating, Foxtail, Giant [5, 17] | Plant response rating, Wheat [10, 15] | Plant response rating, Wheat [10, 16] | Plant response rating, Wheat [10, 17] | Plant response rating, Wheat [10, 18]
30: Plant response rating, Corn (corn (Zea mays); [16]) | Plant response rating, Foxtail, Giant [5, 18]
90: Plant response rating, Crabgrass, Large [4, 15] | Plant response rating, Crabgrass, Large [4, 18] | Plant response rating, Foxtail, Giant [5, 16] | Plant response rating, Pigweed [6, 17] | Plant response rating, Morningglory [7, 15] | Plant response rating, Barnyardgrass [9, 16]
40: Plant response rating, Crabgrass, Large [4, 17] | Plant response rating, Morningglory [7, 17]
100: Plant response rating, Soybean (soybean (Glycine max); 250 g ai/ha) | Plant response rating, Morningglory [1, 13] | Plant response rating, Morningglory [1, 14] | Plant response rating, Cocklebur [2, 13] | Plant response rating, Cocklebur [2, 14] | Plant response rating, Crabgrass, Large [4, 16] | Plant response rating, Pigweed [6, 15] | Plant response rating, Pigweed [6, 16] | Plant response rating, Pigweed [6, 18] | Plant response rating, Morningglory [7, 16] | Plant response rating, Velvetleaf [8, 15] | Plant response rating, Velvetleaf [8, 16] | Plant response rating, Velvetleaf [8, 18]
98: Plant response rating, Soybean (soybean (Glycine max); 125 g ai/ha) | Morningglory plant response rating (0 to 100 scale) [1, 12] | Cocklebur plant response rating (0 to 100 scale) [2, 12]
10: Plant response rating, Barnyardgrass [9, 17]

COCCn1c(-c2ccco2)ncc(C(=O)C2=C(O)CCCC2=O)c1=O [Compound 111]
98: Plant response rating, Soybean (soybean (Glycine max); 250 g ai/ha) | Plant response rating, Cocklebur [2, 11] | Cocklebur plant response rating (0 to 100 scale) [2, 12]
70: Plant response rating, Foxtail, Giant [5, 18]
0: Wheat plant response rating (0 to 100 scale) [3] | Plant response rating, Corn (corn (Zea mays); [15]) | Plant response rating, Corn (corn (Zea mays); [17]) | Plant response rating, Corn (corn (Zea mays); [18]) | Plant response rating, Wheat [10, 15] | Plant response rating, Wheat [10, 16] | Plant response rating, Wheat [10, 17] | Plant response rating, Wheat [10, 18]
90: Plant response rating, Crabgrass, Large [4, 15] | Plant response rating, Crabgrass, Large [4, 16] | Plant response rating, Crabgrass, Large [4, 17] | Plant response rating, Foxtail, Giant [5, 16] | Plant response rating, Velvetleaf [8, 17] | Plant response rating, Barnyardgrass [9, 15] | Plant response rating, Barnyardgrass [9, 16] | Plant response rating, Barnyardgrass [9, 18]
100: Plant response rating, Morningglory [1, 11] | Morningglory plant response rating (0 to 100 scale) [1, 12] | Plant response rating, Morningglory [1, 13] | Plant response rating, Morningglory [1, 14] | Plant response rating, Cocklebur [2, 13] | Plant response rating, Cocklebur [2, 14] | Plant response rating, Crabgrass, Large [4, 18] | Plant response rating, Pigweed [6, 15] | Plant response rating, Pigweed [6, 16] | Plant response rating, Pigweed [6, 17] | Plant response rating, Pigweed [6, 18] | Plant response rating, Morningglory [7, 15] | Plant response rating, Morningglory [7, 16] | Plant response rating, Velvetleaf [8, 15] | Plant response rating, Velvetleaf [8, 16] | Plant response rating, Velvetleaf [8, 18]
50: Plant response rating, Morningglory [7, 17]
30: Plant response rating, Corn (corn (Zea mays); [16]) | Plant response rating, Barnyardgrass [9, 17]
80: Soybean plant response rating (0 to 100 scale) (soybean (Glycine max)) | Plant response rating, Morningglory [7, 18]
5: Plant response rating, Wheat [3]
95: Plant response rating, Soybean (soybean (Glycine max); 125 g ai/ha)
60: Plant response rating, Foxtail, Giant [5, 15]
